Each compound was assayed against human Factor XIa (Homo sapiens (Human), UniProt P03951) (assay: Factor XIa Assay). Conditions: @ 1000 nM compound; read-out: FXIa % Inh. @ 1000 nM.
Assay type: biochemical
Description: The effectiveness of a compound of the present invention as an inhibitor of Coagulation Factor XIa can be determined using a relevant purified serine protease, and an appropriate synthetic substrate. The rate of hydrolysis of the chromogenic or fluorogenic substrate by the relevant serine protease was measured both in the absence and presence of compounds of the present invention. Assays were conducted at room temperature or at 37° C. […] A decrease in the rate of fluorescence change in the presence of inhibitor is indicative of enzyme inhibition. Such methods are known to one skilled in the art. The results of this assay are expressed as the half-maximal inhibitory concentrations (IC50), or the inhibitory constant, Ki.
Compounds were pre-incubated for 30 minutes at 25° C. with human (0.04 nM) Factor XIa in 50 mM HEPES buffer with 150 mM sodium chloride, 5 mM calcium chloride, 0.1% PEG 8000, pH 7.4. Factor XIa enzymatic activity was determined by addition of the substrate glycine-proline-arginine-7-amido-4-trifluoromethylcoumarin (GPR-AFC) and measurement of the fluorescence at 400/505 nm after a 60 minute incubation at 25° C. The % inhibition for each data point was calculated from the data and analyzed using the log (inhibitor) vs. response four parameters equation to determine the half-maximal inhibitory concentrations (IC50). The IC50 were converted to equilibrium inhibitory constants (Ki) using the Cheng-Prusoff equation.

Sequence of human Factor XIa (P03951 388-625): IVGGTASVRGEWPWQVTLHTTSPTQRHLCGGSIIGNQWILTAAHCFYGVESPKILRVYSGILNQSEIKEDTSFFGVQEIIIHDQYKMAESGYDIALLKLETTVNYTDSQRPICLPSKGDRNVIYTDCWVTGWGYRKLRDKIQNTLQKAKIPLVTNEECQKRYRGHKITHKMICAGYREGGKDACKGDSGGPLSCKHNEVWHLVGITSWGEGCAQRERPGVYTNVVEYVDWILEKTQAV
Sequence of human Factor XIa (P03951 19-387 partner): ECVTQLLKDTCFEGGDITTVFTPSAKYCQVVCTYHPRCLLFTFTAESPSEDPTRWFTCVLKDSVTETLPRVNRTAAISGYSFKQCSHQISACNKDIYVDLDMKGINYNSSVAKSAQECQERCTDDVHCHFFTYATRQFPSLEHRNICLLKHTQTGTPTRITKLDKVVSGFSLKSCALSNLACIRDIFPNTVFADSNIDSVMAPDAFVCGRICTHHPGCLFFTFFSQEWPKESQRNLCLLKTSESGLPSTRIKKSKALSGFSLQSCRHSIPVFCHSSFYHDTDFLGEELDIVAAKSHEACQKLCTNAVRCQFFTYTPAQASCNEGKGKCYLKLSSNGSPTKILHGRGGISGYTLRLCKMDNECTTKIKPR

SMILES | inhibition at 1 µM
O=C(O)c1ccc(NC(=O)C(CC2CC2C(F)(F)F)c2ccc(-c3c(OC(F)F)ccc(Cl)c3F)c[n+]2[O-])cc1 (single isomer, unassigned) [Example 110, 2-(1-((4-carboxyphenyl)amino)-1-oxo-3-(2-(trifluoromethyl)cyclopropyl)propan-2-yl)-5-(3-chloro-6-(difluoromethoxy)-2-fluorophenyl)pyridine 1-oxide] | 29%
Cc1cc(C(CC2CC2)C(=O)Nc2ccc(C(=O)O)cc2)[n+]([O-])cc1-c1c(OC(F)F)ccc(Cl)c1F [Example 66, (S)- and (R)-2-(1-((4-carboxyphenyl)amino)-3-cyclopropyl-1-oxopropan-2-yl)-5-(3-chloro-6-(difluoromethoxy)-2-fluorophenyl)-4-methylpyridine 1-oxide] | 34%
O=C(O)c1ccc(NC(=O)C(CC2CC(F)C2)c2ccc(-c3c(OC(F)F)ccc(Cl)c3F)c[n+]2[O-])cc1 (single isomer, unassigned) [Example 101, 2-(1-((4-carboxyphenyl)amino)-3-(3-fluorocyclobutyl)-1-oxopropan-2-yl)-5-(3-chloro-6-(difluoromethoxy)-2-fluorophenyl)pyridine 1-oxide] | 44%

Results, then the compound that gave them:

inhibition at 1 µM | SMILES
49% | C[C@]1(O)CC[C@@H](CC(C(=O)Nc2ccc(C(=O)O)cc2)c2ccc(-c3c(OC(F)F)ccc(Cl)c3F)c[n+]2[O-])CC1 (single isomer, unassigned) [Example 41, 2-(1-((4-carboxyphenyl)amino)-3-((1s,4s)-4-hydroxy-4-methylcyclohexyl)-1-oxopropan-2-yl)-5-(3-chloro-6-(difluoromethoxy)-2-fluorophenyl)pyridine 1-oxide]
47% | O=C(O)c1ccc(NC(=O)C(CC2CC(F)(F)C2)c2ccc(-c3c(OC(F)F)ccc(Cl)c3F)c[n+]2[O-])cc1 (racemic) [Example 49, (S)- and (R)-2-(1-((4-carboxyphenyl)amino)-3-(3,3-difluorocyclobutyl)-1-oxopropan-2-yl)-5-(3-chloro-6-(difluoromethoxy)-2-fluorophenyl)pyridine 1-oxide]

Same assay, conditions: human Factor XIa 0.04 nM, 30 min pre-incubation at 25° C., substrate GPR-AFC; read-out: FXIa IC50

SMILES | IC50
CC1CC1C[C@H](C(=O)Nc1ccc(C(=O)O)cc1)c1ccc(-c2c(OC(F)F)ccc(Cl)c2F)c[n+]1[O-] (single isomer, unassigned) [Example 53] | 155 nM
O=C(O)c1ccc(NC(=O)C(CC2CC2C(F)(F)F)c2ccc(-c3c(C(F)F)ccc(Cl)c3F)c[n+]2[O-])cc1 (single isomer, unassigned) [Example 86, 2-(1-((4-carboxyphenyl)amino)-1-oxo-3-(2-(trifluoromethyl)cyclopropyl)propan-2-yl)-5-(3-chloro-6-(difluoromethyl)-2-fluorophenyl)pyridine 1-oxide] | 93.6 nM
O=C(O)c1ccc(NC(=O)C(CC23CC(C2)C3)c2ccc(-c3c(C(F)F)ccc(Cl)c3F)c[n+]2[O-])cc1F (single isomer, unassigned) [Example 123, 2-(3-(bicyclo[1.1.1]pentan-1-yl)-1-((4-carboxy-3-fluorophenyl)amino)-1-oxopropan-2-yl)-5-(3-chloro-6-(difluoromethyl)-2-fluorophenyl)pyridine 1-oxide] | 24.7 nM
Cc1cc(C(CC2CC2)C(=O)Nc2ccc(C(=O)O)cc2)[n+]([O-])cc1-c1c(OC(F)F)ccc(Cl)c1F [Example 66, (S)- and (R)-2-(1-((4-carboxyphenyl)amino)-3-cyclopropyl-1-oxopropan-2-yl)-5-(3-chloro-6-(difluoromethoxy)-2-fluorophenyl)-4-methylpyridine 1-oxide] | > 1000 nM
CC(C1CC1)C(C(=O)Nc1ccc(C(=O)O)cc1)c1ccc(-c2c(OC(F)F)ccc(Cl)c2F)c[n+]1[O-] (single isomer, unassigned) [Example 59, 2-(1-((4-carboxyphenyl)amino)-3-cyclopropyl-1-oxobutan-2-yl)-5-(3-chloro-6-(difluoromethoxy)-2-fluorophenyl)pyridine 1-oxide] | 286 nM

The remaining lines, values ahead:

IC50 | SMILES
227 nM | C[C@]1(O)CC[C@H](CC(C(=O)Nc2ccc(C(=O)O)cc2)c2ccc(-c3c(OC(F)F)ccc(Cl)c3F)c[n+]2[O-])CC1 (single isomer, unassigned) [Example 42, 2-(1-((4-carboxyphenyl)amino)-3-((1r,4r)-4-hydroxy-4-methylcyclohexyl)-1-oxopropan-2-yl)-5-(3-chloro-6-(difluoromethoxy)-2-fluorophenyl)pyridine 1-oxide]
> 1000 nM | C[C@]1(O)CC[C@@H](CC(C(=O)Nc2ccc(C(=O)O)cc2)c2ccc(-c3c(OC(F)F)ccc(Cl)c3F)c[n+]2[O-])CC1 (single isomer, unassigned) [Example 41, 2-(1-((4-carboxyphenyl)amino)-3-((1s,4s)-4-hydroxy-4-methylcyclohexyl)-1-oxopropan-2-yl)-5-(3-chloro-6-(difluoromethoxy)-2-fluorophenyl)pyridine 1-oxide]

— patent US10143681B2, “Factor XIa inhibitors” (MERCK SHARP & DOHME CORP., priority 2016, dated 2018)
